From the supplement of paper PMC10307832

The cell lines below were run with CC(C)(C)c1cc(NC(=O)Nc2ccc(-c3cn4c(n3)sc3cc(OCCN5CCOCC5)ccc34)cc2)no1 [Quizartinib] + CC(=O)Nc1cccc(-n2c(=O)n(C3CC3)c(=O)c3c(Nc4ccc(I)cc4F)n(C)c(=O)c(C)c32)c1 [Trametinib] (partner 0.02 µM) (assay: relative viability (nuclei count vs DMSO), 5 days (fraction); higher = more cells survive). Conditions: first compound 0.1 µM.
Summary of the method: (§1)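 Lung cancer cell lines, seeded in 1536-well plates, were treated the following day by pin tool with a single drug or with five library-drug doses (not always all listed) in √10 steps on top of a fixed anchor-drug dose. Cells were fixed and nuclei stained in one step after 5 days, and nuclei were counted. Relative viability is the nuclei count for treated wells divided by that for vehicle wells, reported as medians of duplicate plates.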

Point of comparison: LK-2, relative viability 0.789. Against it:
- NCI-H358 — lower, 0.129
- CAL-12T — lower, 0.352
- NCI-H2342 — lower, 0.764
- NCI-H1793 — lower, 0.452
- NCI-H522 — lower, 0.727

These cell lines were tested with CC(C)(C)c1cc(NC(=O)Nc2ccc(-c3cn4c(n3)sc3cc(OCCN5CCOCC5)ccc34)cc2)no1 [Quizartinib] + CC(C)C[C@H](NC(=O)[C@H](Cc1ccccc1)NC(=O)c1cnccn1)B(O)O [Bortezomib] (partner 0.002 µM) in the same assay as above. Conditions: first compound 0.001 µM.
Summary of the method: as §1

Point of comparison: LU99A, relative viability 0.837. Against it:
- EKVX — higher, 0.892
- EPLC-272H — lower, 0.778
- NCI-H520 — lower, 0.448
- NCI-H1563 — higher, 0.968
- NCI-H650 — lower, 0.785
- RERF-LC-KJ — higher, 1.04
- HCC-827 — higher, 0.998
- NCI-H2087 — lower, 0.833
- NCI-H1651 — lower, 0.801
- UMC-11 — lower, 0.242
- NCI-H1355 — higher, 1.07
- H3255 — lower, 0.776
- NCI-H1792 — lower, 0.783
- NCI-H647 — higher, 0.91
- Calu-6 — higher, 0.924
- NCI-H1703 — lower, 0.418
- LXF-289 — higher, 0.868
- NCI-H2023 — lower, 0.777
- NCI-H2228 — higher, 1.05
- NCI-H1437 — lower, 0.354
- NCI-H2009 — lower, 0.423
- HCC-366 — higher, 0.989
- EBC-1 — lower, 0.524
- NCI-H1915 — higher, 0.924
- NCI-H2347 — lower, 0.757
- ABC-1 — lower, 0.283
- IA-LM — lower, 0.774
- CAL-12T — lower, 0.809

Same assay, conditions: first compound 0.003162 µM

Point of comparison: RERF-LC-KJ, relative viability 1.15. Against it:
- EKVX — lower, 0.938
- EPLC-272H — lower, 0.836
- NCI-H520 — lower, 0.549
- NCI-H1563 — lower, 0.833
- NCI-H650 — lower, 0.768
- HCC-827 — lower, 1.11
- NCI-H2087 — lower, 0.927
- NCI-H1299 — lower, 0.985
- NCI-H1651 — lower, 0.938
- UMC-11 — lower, 0.852
- NCI-H1355 — higher, 1.28
- H3255 — lower, 0.713
- NCI-H1792 — lower, 0.947
- NCI-H647 — lower, 1.08
- Calu-6 — lower, 0.991
- LCLC-97TM1 — lower, 0.689
- NCI-H1703 — lower, 0.269
- LXF-289 — lower, 0.955
- LU99A — lower, 1.08
- NCI-H2023 — lower, 0.947
- NCI-H2228 — lower, 0.995
- NCI-H1437 — lower, 0.492
- NCI-H2009 — lower, 0.879
- HCC-366 — lower, 0.974
- EBC-1 — lower, 0.505
- NCI-H1915 — lower, 0.836
- NCI-H2347 — lower, 1.14
- ABC-1 — lower, 0.232
- IA-LM — lower, 0.738
- CAL-12T — higher, 1.23

Same assay, conditions: first compound 0.01 µM

Point of comparison: EKVX, relative viability 1.01. Against it:
- EPLC-272H — lower, 0.818
- NCI-H520 — lower, 0.736
- NCI-H1563 — lower, 0.791
- NCI-H650 — lower, 0.818
- RERF-LC-KJ — higher, 1.26
- HCC-827 — higher, 1.02
- NCI-H2087 — lower, 0.88
- NCI-H1299 — the same, 1.01
- NCI-H1651 — higher, 1.08
- UMC-11 — lower, 0.875
- NCI-H1355 — higher, 1.09
- H3255 — lower, 0.7
- NCI-H1792 — the same, 1.01
- NCI-H647 — lower, 0.71
- Calu-6 — higher, 1.02
- LCLC-97TM1 — lower, 0.811
- NCI-H1703 — lower, 0.16
- LXF-289 — lower, 0.983
- LU99A — higher, 1.3
- NCI-H2023 — lower, 0.942
- NCI-H2228 — lower, 0.937
- NCI-H1437 — lower, 0.393
- NCI-H2009 — lower, 0.948
- HCC-366 — higher, 1.13
- EBC-1 — lower, 0.561
- NCI-H1915 — lower, 0.916
- NCI-H2347 — lower, 0.968
- ABC-1 — lower, 0.299
- IA-LM — lower, 0.885
- CAL-12T — lower, 0.93

Same assay, conditions: first compound 0.03162 µM

Point of comparison: NCI-H2347, relative viability 0.959. Against it:
- EKVX — higher, 1.13
- EPLC-272H — lower, 0.69
- NCI-H520 — lower, 0.532
- NCI-H650 — lower, 0.885
- RERF-LC-KJ — higher, 1.1
- HCC-827 — higher, 1.06
- NCI-H2087 — lower, 0.939
- NCI-H1299 — higher, 1.02
- NCI-H1651 — lower, 0.888
- UMC-11 — lower, 0.769
- NCI-H1355 — higher, 1.25
- H3255 — lower, 0.946
- NCI-H1792 — lower, 0.793
- NCI-H647 — higher, 0.999
- Calu-6 — lower, 0.811
- NCI-H1703 — lower, 0.18
- LXF-289 — lower, 0.949
- LU99A — higher, 1.19
- NCI-H2023 — lower, 0.751
- NCI-H2228 — lower, 0.92
- NCI-H1437 — lower, 0.49
- NCI-H2009 — higher, 1.02
- HCC-366 — higher, 0.967
- EBC-1 — lower, 0.495
- NCI-H1915 — higher, 1.06
- ABC-1 — lower, 0.28
- IA-LM — lower, 0.812
- CAL-12T — lower, 0.924

Same assay, conditions: first compound 0.1 µM

Point of comparison: Calu-6, relative viability 1.07. Against it:
- EKVX — lower, 1
- EPLC-272H — lower, 0.75
- NCI-H520 — lower, 0.462
- NCI-H1563 — lower, 0.84
- NCI-H650 — lower, 1.01
- RERF-LC-KJ — lower, 1.06
- HCC-827 — lower, 1.01
- NCI-H2087 — lower, 0.914
- NCI-H1299 — lower, 1.04
- NCI-H1651 — lower, 0.993
- UMC-11 — lower, 0.653
- NCI-H1355 — higher, 1.28
- H3255 — lower, 0.774
- NCI-H1792 — lower, 0.952
- NCI-H647 — higher, 1.29
- LCLC-97TM1 — lower, 0.527
- NCI-H1703 — lower, 0.256
- LXF-289 — lower, 1.03
- LU99A — higher, 1.2
- NCI-H2023 — lower, 0.926
- NCI-H2228 — higher, 1.08
- NCI-H1437 — lower, 0.255
- NCI-H2009 — lower, 0.926
- HCC-366 — lower, 1.01
- EBC-1 — lower, 0.466
- NCI-H1915 — lower, 1.01
- NCI-H2347 — higher, 1.23
- ABC-1 — lower, 0.262
- IA-LM — lower, 0.736
- CAL-12T — higher, 1.24
